The source of these data is PMC12207533, “Structure-guided design of a methyltransferase-like 3 (METTL3) proteolysis targeting chimera (PROTAC) incorporating an indole–nicotinamide chemotype” (RSC Medicinal Chemistry, 2025).

Several values for one entry are separate records, joined by “and”; a condition that tells them apart may be missing. Equal values may be shown once. Read-outs that look alike come from different tables or passages of the source.

In assay [1] the target is T1, VCB (VHL, elongin B, elongin C) (Homo sapiens, UniProt P40337).
T1 construct: VHL (UniProt: P40337, aa 1–213); His6 (N); made in house; host or cells: E. coli BL21 (DE3)
In words: FP displacement assay with VCB (binary and ternary KD, cooperativity). Type of assay: binding. The procedure: Fluorescence polarization (FP) displacement assays with METTL3/14 (ref. [36]) and VCB[38–40] were performed following previous protocols with slight adaptations. All experiments were conducted in black Greiner 96-well half-area plates using a Tecan Spark 10 M plate reader, equipped with polarization filters coupled to a monochromator setup (λex = 480 nm, λem = 530 nm). Reaction mixtures for METTL3/14 contained 300 nM recombinant enzyme, 20 nM FAM-labelled displacement tracer (STM-FL[36]), and the test compounds at varying concentrations in 25 mM Tris HCl, pH 7.5, 100 mM NaCl, and 10% DMSO. For VCB, the mixtures contained 40 nM recombinant enzyme, 10 nM FAM-labelled probe (FAM-DEALAHyp[…], Tocris Bioscience), and the tested compounds, at varying concentrations, in 50 mM Tris, pH 7.5, 200 mM NaCl, 2 mM DTT, and 10% DMSO. […] All measurements were performed at least as technical triplicates. Polarization values (mP) were determined from polarization-specific parallel and orthogonal fluorescence intensities using the Tecan in-built calculation routine. Using GraphPad Prism 8.0.1, the FP values were normalized, and KD values were calculated using a 4-parameter Hill equation: y(% probe bound) = bottom + ([ligand]slope) × (top–bottom)/([ligand]slope + KD slope).

The subject of assay [2] is MOLM-13 cells. In words: Cell viability assay (CellTiter Glo 2.0). Type of assay: cell-based, human. The conditions noted are these: Homo sapiens, MOLM-13, 72 h; read-out: IC50 (cell viability inhibition). How it is done: To determine cell viability, MOLM-13 cells were treated with the indicated compounds in a 1 : 1 serial dilution, with pure DMSO (final: 0.1%) as the negative control. Briefly, 1000 cells were seeded in black Greiner half-area 96-well plates and incubated for 72 h with inhibitors from DMSO stocks under standard cultivation conditions. Then, Promega CellTiter Glo 2.0 reagent was added to each well according to the manufacturer's protocols, and luminescence was measured using a Tecan Spark 10 M. Experiments were conducted in technical triplicate. Data was normalized to the DMSO control and analyzed with GraphPad Prism 8.0.1 to determine EC50 values. Synergistic effects of venetoclax and AF151 on cell MOLM-13 viability were conducted accordingly, with dilution series of both compounds analyzed using the SynergyFinder+ webtoolkit.[57]
On the technique in general: In ATP-based viability assays light output follows the ATP content of the culture.

Assay [3] concerns METTL3. Set-up: method as in PMID 38194973. The following applies: cited from earlier work.
Assay [4] concerns the target T2, human VHL (Homo sapiens, UniProt P40337).
T2 construct: purchased Revvity
Description: HTRF human VHL binding kit. The following applies: VHL affinity in presence and absence of METTL3/14 (4 μM). The procedure: PROTACs binding to VHL or CRBN were measured using a homogeneous time-resolved fluorescence (HTRF) human VHL or CRBN binding kit (Revvity). Samples were prepared according to the manufacturer's protocol, with compounds diluted in the provided diluent while maintaining a constant DMSO concentration with a final concentration of 1.25%. For the ternary KD determinations, METTL3/14 was added at 4 μM, corresponding to approximately a 20- to 40-fold excess of binary KD, while all other component concentrations were kept as specified in the protocol. Measurements were performed in triplicate using a Tecan Spark 10 M plate reader, recording donor and acceptor emissions at λem_donor = 620 nm and λem_acceptor = 665 nm, respectively, following excitation of the HTRF donor at λex = 320 nm. The acceptor-to-donor emission ratio was calculated as ratio = signal 665 nm/signal 620 nm. Using GraphPad Prism 8.0.1, the fluorescence values were normalized, and KD values were calculated as specified above.
A general note: In TR-FRET formats the signal depends on donor and acceptor labels being close together.

Assay [5] addresses T3, METTL3 (Homo sapiens, UniProt Q86U44).
T3 construct: endogenous in cells; host or cells: MOLM-13
In words: Immunoblotting of METTL3 protein levels in MOLM-13 cells. Type of assay: cell-based. The following applies: MOLM-13, 0.1-10 μM, 16 h. The procedure:
MOLM-13 were seeded in 12-well cell culture plates at a density of 1 × 10^6 cells per mL and treated with DMSO (final: 0.1%) or different concentrations of PROTAC degraders in DMSO at the indicated times. Treatments were conducted in biological triplicate with varying passages of MOLM-13 cells. The cells were harvested by centrifugation at 500g for 5 min and washed with PBS. The cells were lysed with RIPA lysis buffer with the addition of protease inhibitor (1× cOMPLETE), and insoluble cellular parts were separated by centrifugation (12 000g for 10 min), subsequently, the supernatant was boiled with 1× Laemmli sample buffer (Carl Roth) for 5 min at 95 °C. Proteins were separated by SDS–PAGE on 4–20% Criterion™ TGX™ Precast Protein Gels (Bio-Rad) and transferred to Amersham™ Protean® 0.45 μm nitrocellulose membrane (Cytiva) using semi-dry transfer (25 V, 1 A, Towbin buffer). The membrane was blocked with 5% milk (Carl Roth) in TBST buffer and incubated with the following primary antibodies: Anti-METTL3 (1 : 1000, Abcam, ab195352), anti-METTL14 (1 : 1000, Abcam, ab220030), anti-Bcl2 (1 : 1000, Cell Signaling Technology [CST], EPR16891), anti-Mcl-1 (1 : 1000, CST, 5453 T), anti-Bcl-XL (1 : 1000, CST, 2764 T), anti-vinculin (1 : 1000, CST, 13901) or anti-GAPDH (1 : 5000, CST, D17C4) overnight at 4 °C. Subsequently, the membrane was incubated for 1 h at RT with secondary antibodies: anti-rabbit (1 : 2000, VWR, NA934) or anti-mouse (1 : 2000, VWR, 102646-160). The protein bands were detected via chemiluminescence using Pierce™ ECL western blotting substrate and a Fusion FX imaging system (Vilber). The ImageLab software (Bio-Rad) was used for band quantification.
For orientation: Immunoblotting shows a protein as a band on a membrane.

T1 sequence (P40337 whole entry, the tested form may be a part): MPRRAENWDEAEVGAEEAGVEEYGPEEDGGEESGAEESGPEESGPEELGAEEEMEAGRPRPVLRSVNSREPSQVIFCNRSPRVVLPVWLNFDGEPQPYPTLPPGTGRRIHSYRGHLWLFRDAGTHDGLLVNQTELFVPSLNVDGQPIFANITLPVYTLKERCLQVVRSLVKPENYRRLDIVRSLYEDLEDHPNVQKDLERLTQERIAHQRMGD
T1 sequence (Q15370 whole entry partner, the tested form may be a part): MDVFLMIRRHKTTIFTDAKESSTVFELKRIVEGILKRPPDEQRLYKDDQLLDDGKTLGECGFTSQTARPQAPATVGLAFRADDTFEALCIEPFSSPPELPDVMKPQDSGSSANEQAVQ
T1 sequence (Q15369 17-112 partner limits assumed): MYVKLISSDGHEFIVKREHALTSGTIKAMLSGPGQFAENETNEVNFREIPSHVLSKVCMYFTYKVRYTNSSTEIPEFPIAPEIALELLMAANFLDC
T2 sequence (P40337 whole entry): as the sequence (P40337 whole entry, the tested form may be a part) above
T2 sequence (Q15370 whole entry partner): as the sequence (Q15370 whole entry partner, the tested form may be a part) above
T2 sequence (Q15369 whole entry partner): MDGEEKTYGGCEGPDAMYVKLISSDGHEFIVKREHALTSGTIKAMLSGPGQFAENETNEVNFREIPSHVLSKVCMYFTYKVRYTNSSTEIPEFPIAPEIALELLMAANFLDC
T3 sequence (Q86U44 whole entry): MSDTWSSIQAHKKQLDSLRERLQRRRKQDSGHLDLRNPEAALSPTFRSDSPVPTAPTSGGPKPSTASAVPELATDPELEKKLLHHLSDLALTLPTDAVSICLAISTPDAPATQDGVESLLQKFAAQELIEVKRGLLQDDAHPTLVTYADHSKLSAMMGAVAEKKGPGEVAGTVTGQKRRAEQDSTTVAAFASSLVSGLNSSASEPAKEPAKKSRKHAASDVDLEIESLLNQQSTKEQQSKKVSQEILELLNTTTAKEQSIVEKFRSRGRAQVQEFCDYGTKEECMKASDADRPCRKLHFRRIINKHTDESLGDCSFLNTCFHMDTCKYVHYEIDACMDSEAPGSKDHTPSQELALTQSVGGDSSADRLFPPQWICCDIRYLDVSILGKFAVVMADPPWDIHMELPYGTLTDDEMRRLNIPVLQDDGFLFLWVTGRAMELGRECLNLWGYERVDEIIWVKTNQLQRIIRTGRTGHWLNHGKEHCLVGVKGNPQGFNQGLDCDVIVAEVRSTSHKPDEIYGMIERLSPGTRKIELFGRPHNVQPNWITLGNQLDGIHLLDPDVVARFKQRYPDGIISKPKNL

For the molecule `Cc1ncsc1-c1ccc([C@H](C)NC(=O)[C@@H]2C[C@@H](O)CN2C(=O)[C@@H](NC(=O)CCC#Cc2ccc(CNc3cc(N4CCC5(CC4)CN(c4cc(F)c(CN6CCC(C)(C)CC6)cc4F)CC(=O)N5)ncn3)cc2)C(C)(C)C)cc1` [WD6305], the Kd (in general, a measure of binding affinity in units of concentration) was 1.7 µM in assay [1] (40 nM VCB, 10 nM probe, absence of METTL3, read-out: KD E3-ligases (VHL, FP), binary); 1.76 ± 0.264 µM in assay [1] (absence of METTL3, read-out: KD binary (VHL)); 0.0774 µM and 0.079 µM in assay [1] (presence of METTL3/14 (12 μM), read-out: KD ternary (VHL)). Also, the IC50 (commonly the concentration at which inhibition is half-maximal) in assay [2] worked out at 0.78 µM. Further, in assay [3], the “Dmax (METTL3 degradation)” value is approximately 91%. Moreover, the half-maximal degradation concentration (DC50) (in general, the concentration giving 50% degradation) in assay [3] (read-out: DC50 (METTL3 degradation)) is 0.14 µM. In assay [4], the “cooperativity (HTRF)” value is reported as “positive cooperativity”.

Regarding `COc1cc2c(cc1Cc1cccc(Cl)c1F)c(=O)c(C(=O)O)cn2[C@H](CO)C(C)C` [Elvitegravir, reference compound], in assay [5], the “METTL3 degradation (Western blot screening)” value is “do not func?on as METTL3 degraders”.
